Laboratory results reported in US12077503B2, “Substituted cyclic amides and their use as herbicides” (FMC CORPORATION, priority 2015, dated 2024).

What was measured:
Format in all cases: in vivo
Kochia (Kochia scoparia) [1] = assay: Test A preemergence
Method in brief: (§1)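 Greenhouse, ~10 d after spray; visual injury vs untreated controls, 0 = no effect, 100 = complete control. Preemergence: directed soil spray over planted seeds. Postemergence: plants 2–10 cm, 1–2 leaf stage. Loam/sand blend. Compound in non-phytotoxic solvent with surfactant.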

[2] = system: barnyardgrass (Echinochloa crus-galli); assay: Test A preemergence
Method in brief: as §1

[3] = system: giant foxtail (Setaria faberii); assay: Test A preemergence
Method in brief: as §1

[4] = system: pigweed (Amaranthus retroflexus); assay: Test A preemergence; conditions: for Plant response rating, Pigweed: preemergence
[5] = system: ragweed (common ragweed, Ambrosia elatior); assay: Test A preemergence; conditions: for Plant response rating, Ragweed: preemergence
Method in brief: as §1

[6] = system: ryegrass, Italian (Italian ryegrass, Lolium multiflorum); assay: Test A preemergence; conditions: for Plant response rating, Ryegrass, Italian: preemergence
Method in brief: as §1

[7] = system: Galium (catchweed bedstraw, Galium aparine); assay: Test A postemergence
Method in brief: as §1

Kochia (Kochia scoparia) [8] = assay: Test A postemergence
Method in brief: as §1

[9] = system: barnyardgrass (Echinochloa crus-galli); assay: Test A postemergence
Method in brief: as §1

[10] = system: blackgrass (Alopecurus myosuroides); assay: Test A postemergence
Method in brief: as §1

corn (Zea mays) = assay: Test A postemergence
Method in brief: as §1

[11] = system: giant foxtail (Setaria faberii); assay: Test A postemergence
Method in brief: as §1

[12] = system: pigweed (Amaranthus retroflexus); assay: Test A postemergence
Method in brief: as §1

[13] = system: ragweed (common ragweed, Ambrosia elatior); assay: Test A postemergence
Method in brief: as §1

[14] = system: ryegrass, Italian (Italian ryegrass, Lolium multiflorum); assay: Test A postemergence
Method in brief: as §1

[15] = system: wheat (Triticum aestivum); assay: Test A postemergence
Method in brief: as §1

[16] = system: barnyardgrass (Echinochloa crus-galli); assay: Test B flooded paddy test; conditions: Flood, 0 to 100 scale where 0 is no effect and 100 is complete control, 13 to 15 d
Method in brief: (§2)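 Greenhouse paddy pots with 2-leaf stage plants received compound by direct addition to floodwater 3 cm deep, kept at that level. Scored visually at 13–15 d versus controls (0 no effect; 100 complete control).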

[17] = system: ducksalad (Heteranthera limosa); assay: Test B flooded paddy test; conditions: Flood, 0 to 100 scale where 0 is no effect and 100 is complete control, 13 to 15 d
Method in brief: as §2

rice (Oryra sativa) = assay: Test B flooded paddy test; conditions: Flood, 0 to 100 scale where 0 is no effect and 100 is complete control, 13 to 15 d
Method in brief: as §2

[18] = system: sedge, umbrella (small-flower umbrella sedge, Cyperus difformis); assay: Test B flooded paddy test; conditions: Flood, 0 to 100 scale where 0 is no effect and 100 is complete control, 13 to 15 d
Method in brief: as §2

[19] = 125 g ai/ha, preemergence, visual rating after approx. 10 d, 0 to 100 scale where 0 is no effect and 100 is complete control
[20] = 500 g ai/ha, preemergence, 0 to 100 scale, 0 = no effect, 100 = complete control
[21] = 125 g ai/ha, visual rating after approx. 10 d, 0 to 100 scale where 0 is no effect and 100 is complete control
[22] = 500 g ai/ha, 0 to 100 scale, 0 = no effect, 100 = complete control
[23] = 125 g ai/ha, postemergence, visual injury after approximately 10 d, 0 to 100 scale (0 no effect, 100 complete control)
[24] = 500 g ai/ha, postemergence, visual injury, 0 to 100 scale (0 no effect, 100 complete control), approx. 10 d
[25] = 125 g ai/ha, preemergence, 0 to 100 scale (0 no effect, 100 complete control)
[26] = Preemergence, 500 g ai/ha, 0 is no effect, 100 is complete control
[27] = 125 g ai/ha, 0 to 100 scale (0 no effect, 100 complete control)
[28] = 500 g ai/ha, postemergence, 0 to 100 scale, 0 no effect, 100 complete control
[29] = Postemergence, 125 g ai/ha, visual injury, 0 to 100 scale (0 no effect, 100 complete control), approx. 10 d
[30] = 125 g ai/ha, Preemergence, visual injury after approximately 10 d, 0 to 100 scale where 0 is no effect and 100 is complete control
[31] = 125 g ai/ha, postemergence, visual rating after approx. 10 d, 0 to 100 scale (0 no effect, 100 complete control)

## O=C1NCC(c2ccc(I)cc2)C1C(=O)Nc1cccc(F)c1 (racemic) [Compound 703]
Kochia (Kochia scoparia) [1]; [19]
  Plant response rating, Kochia: 0
[2]; [19]
  Plant response rating, Barnyardgrass: 20
[2]; [20]
  Plant response rating, Barnyardgrass: 80
[3]; [19]
  Plant response rating, Foxtail, Giant: 80
[3]; [20]
  Plant response rating, Foxtail, Giant: 90
[4]; [21]
  Plant response rating, Pigweed: 0
[4]; [22]
  Plant response rating, Pigweed: 0
[5]; [21]
  Plant response rating, Ragweed: 0
[5]; [22]
  Plant response rating, Ragweed: 0
[6]; [21]
  Plant response rating, Ryegrass, Italian: 0
[6]; [22]
  Plant response rating, Ryegrass, Italian: 0
[7]; [23]
  Plant response rating, Galium: 0
[7]; [24]
  Plant response rating, Galium: 0
Kochia (Kochia scoparia) [8]; [23]
  Plant response rating, Kochia: 0
Kochia (Kochia scoparia) [8]; [24]
  Plant response rating, Kochia: 0
[9]; [23]
  Plant response rating, Barnyardgrass: 60
[9]; [24]
  Plant response rating, Barnyardgrass: 70
[10]; [23]
  Plant response rating, Blackgrass: 0
[10]; [24]
  Plant response rating, Blackgrass: 0
Corn (Zea mays); [23]
  Plant response rating, Corn: 0
Corn (Zea mays); [24]
  Plant response rating, Corn: 0
[11]; [23]
  Plant response rating, Foxtail, Giant: 50
[11]; [24]
  Plant response rating, Foxtail, Giant: 90
[12]; [23]
  Plant response rating, Pigweed: 0
[12]; [24]
  Plant response rating, Pigweed: 0
[13]; [23]
  Plant response rating, Ragweed: 0
[13]; [24]
  Plant response rating, Ragweed: 0
[14]; [23]
  Plant response rating, Ryegrass, Italian: 0
[14]; [24]
  Plant response rating, Ryegrass, Italian: 0
[15]; [23]
  Plant response rating, Wheat: 0
[15]; [24]
  Plant response rating, Wheat: 0
[16]; 500 g ai/ha
  Plant response rating, Barnyardgrass: 30
[17]; 500 g ai/ha
  Plant response rating, Ducksalad: 98
Rice (Oryra sativa); 500 g ai/ha
  Plant response rating, Rice: 0
[18]; 500 g ai/ha
  Plant response rating, Sedge, Umbrella: 0

## O=C1NCC(c2cccc(F)c2)C1C(=O)Nc1cccc(F)c1F (racemic) [Compound 375]
Kochia (Kochia scoparia) [1]; [25]
  Plant response rating, Kochia: 20
Kochia (Kochia scoparia) [1]; [26]
  Kochia plant response rating (0 to 100 scale): 70
[2]; [25]
  Plant response rating, Barnyardgrass: 90
[2]; [26]
  Barnyardgrass plant response rating (0 to 100 scale): 90
[3]; [25]
  Plant response rating, Foxtail, Giant: 90
[3]; [26]
  Foxtail, Giant plant response rating (0 to 100 scale): 90
[4]; [27]
  Plant response rating, Pigweed: 20
[4]; [26]
  Pigweed plant response rating (0 to 100 scale): 70
[5]; [27]
  Plant response rating, Ragweed: 0
[5]; [26]
  Ragweed plant response rating (0 to 100 scale): 70
[6]; [27]
  Plant response rating, Ryegrass, Italian: 20
[6]; [26]
  Ryegrass, Italian plant response rating (0 to 100 scale): 50
[7]; [28]
  Plant response rating, Galium: 50
[7]; [29]
  Plant response rating, Galium: 40
Kochia (Kochia scoparia) [8]; [28]
  Plant response rating, Kochia: 60
Kochia (Kochia scoparia) [8]; [29]
  Plant response rating, Kochia: 30
[9]; [28]
  Plant response rating, Barnyardgrass: 90
[9]; [29]
  Plant response rating, Barnyardgrass: 90
[10]; [28]
  Plant response rating, Blackgrass: 70
[10]; [29]
  Plant response rating, Blackgrass: 50
Corn (Zea mays); [28]
  Plant response rating, Corn: 80
Corn (Zea mays); [29]
  Plant response rating, Corn: 30
[11]; [28]
  Plant response rating, Foxtail, Giant: 90
[11]; [29]
  Plant response rating, Foxtail, Giant: 90
[12]; [28]
  Plant response rating, Pigweed: 50
[12]; [29]
  Plant response rating, Pigweed: 20
[13]; [28]
  Plant response rating, Ragweed: 20
[13]; [29]
  Plant response rating, Ragweed: 0
[14]; [28]
  Plant response rating, Ryegrass, Italian: 20
[14]; [29]
  Plant response rating, Ryegrass, Italian: 0
[15]; [28]
  Plant response rating, Wheat: 80
[15]; [29]
  Plant response rating, Wheat: 30
[16]; 250 g ai/ha
  Plant response rating, Barnyardgrass: 70
[17]; 250 g ai/ha
  Plant response rating, Ducksalad: 100
Rice (Oryra sativa); 250 g ai/ha
  Plant response rating, Rice: 30
[18]; 250 g ai/ha
  Plant response rating, Sedge, Umbrella: 0

## O=C1NCC(c2cccc(Br)c2)C1C(=O)Nc1ccccc1F (racemic) [Compound 686]
Kochia (Kochia scoparia) [1]; [30]
  Plant response rating, Kochia: 0
Kochia (Kochia scoparia) [1]; [20]
  Plant response rating, Kochia: 40
[2]; [30]
  Plant response rating, Barnyardgrass: 90
[2]; [20]
  Plant response rating, Barnyardgrass: 90
[3]; [30]
  Plant response rating, Foxtail, Giant: 90
[3]; [20]
  Plant response rating, Foxtail, Giant: 90
[4]; [21]
  Plant response rating, Pigweed: 0
[4]; [22]
  Plant response rating, Pigweed: 20
[5]; [21]
  Plant response rating, Ragweed: 0
[5]; [22]
  Plant response rating, Ragweed: 0
[6]; [21]
  Plant response rating, Ryegrass, Italian: 0
[6]; [22]
  Plant response rating, Ryegrass, Italian: 20
[7]; [23]
  Plant response rating, Galium: 0
[7]; [24]
  Plant response rating, Galium: 20
Kochia (Kochia scoparia) [8]; [23]
  Plant response rating, Kochia: 0
Kochia (Kochia scoparia) [8]; [24]
  Plant response rating, Kochia: 30
[9]; [31]
  Plant response rating, Barnyardgrass: 90
[9]; [24]
  Plant response rating, Barnyardgrass: 90
[10]; [31]
  Plant response rating, Blackgrass: 20
[10]; [24]
  Plant response rating, Blackgrass: 40
Corn (Zea mays); [23]
  Plant response rating, Corn: 0
Corn (Zea mays); [24]
  Plant response rating, Corn: 50
[11]; [23]
  Plant response rating, Foxtail, Giant: 80
[11]; [24]
  Plant response rating, Foxtail, Giant: 90
[12]; [23]
  Plant response rating, Pigweed: 0
[12]; [24]
  Plant response rating, Pigweed: 20
[13]; [23]
  Plant response rating, Ragweed: 20
[13]; [24]
  Plant response rating, Ragweed: 20
[14]; [23]
  Plant response rating, Ryegrass, Italian: 20
[14]; [24]
  Plant response rating, Ryegrass, Italian: 40
[15]; [23]
  Plant response rating, Wheat: 0
[15]; [24]
  Plant response rating, Wheat: 30
[16]; 250 g ai/ha
  Plant response rating, Barnyardgrass: 35
[17]; 250 g ai/ha
  Plant response rating, Ducksalad: 90
Rice (Oryra sativa); 250 g ai/ha
  Plant response rating, Rice: 0
[18]; 250 g ai/ha
  Plant response rating, Sedge, Umbrella: 0
